pIC50: −log10 of the molar value. Read-outs that look alike come from different tables or passages of the source.
Assays:
[1] = target: T1, PARP7 (Homo sapiens, UniProt Q7Z3E1); assay: PARP7 TR-FRET assay (binding, displacement of biotinylated Probe A); details: 6 nM PARP7, 2 nM Probe A, 25° C., 30 min
T1 sequence (Q7Z3E1 1-657): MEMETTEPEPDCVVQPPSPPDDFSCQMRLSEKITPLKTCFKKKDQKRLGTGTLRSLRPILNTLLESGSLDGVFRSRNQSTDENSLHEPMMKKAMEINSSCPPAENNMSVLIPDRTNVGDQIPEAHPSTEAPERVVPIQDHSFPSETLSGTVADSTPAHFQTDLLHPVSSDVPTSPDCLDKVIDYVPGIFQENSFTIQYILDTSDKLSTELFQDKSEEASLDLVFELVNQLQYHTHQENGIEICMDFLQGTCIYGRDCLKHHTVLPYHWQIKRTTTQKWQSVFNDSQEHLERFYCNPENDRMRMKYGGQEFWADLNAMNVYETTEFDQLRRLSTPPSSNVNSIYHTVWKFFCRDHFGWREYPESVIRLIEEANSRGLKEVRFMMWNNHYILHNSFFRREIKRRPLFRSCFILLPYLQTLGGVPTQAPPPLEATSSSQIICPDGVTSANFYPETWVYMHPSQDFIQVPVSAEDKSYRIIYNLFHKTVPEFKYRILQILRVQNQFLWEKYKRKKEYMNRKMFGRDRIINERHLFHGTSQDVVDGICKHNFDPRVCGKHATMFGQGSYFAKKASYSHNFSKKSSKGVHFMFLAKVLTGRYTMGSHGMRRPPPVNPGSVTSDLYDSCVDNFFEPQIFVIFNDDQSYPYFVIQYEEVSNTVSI
Method in brief: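 Compound displacement of biotinylated Probe A (2 nM) from PARP7 (6 nM) measured by TR-FRET in HEPES pH 8.0 buffer, 30 min at 25° C. Detection used ULight-anti 6xHis (4 nM) plus Eu-streptavidin (0.25 nM) for 30 min, reading the 665/615 nm ratio. % inhibition was taken against DMSO and no-enzyme wells, and IC50 from a Hill fit.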

[2] = system: NCI-H1373 cells; assay: Inhibition of cancer cell growth in NCI-H1373 cells (Cell-titer Glo, 6 days); assay type: cell-based; details: read-out: H1373 Cell Proliferation IC50
Description: Biological Assay Example B: Inhibition of cancer cell growth in NCI-H1373 cells by PARP7 inhibitors
NCI-H1373 cells were cultured in RPMI 1640 medium supplemented with 10% fetal bovine serum, 100 U/mL penicillin and 100 ug/mL streptomycin in a 37° C., 5% CO2 incubator. Fifteen hundred cells were seeded into each well of 96-well plate in RPMI1640 medium containing 10% fetal bovine serum and incubated overnight. Serial diluted compounds for each well were added at a final DMSO concentration of 0.5% and a day zero plate was collected for analysis. Compounds were incubated with the cells for 6 days. Cell growth was assessed using Cell-titer Glo reagent (Promega #G^7572). The luminescence signal was collected on Tecan Spark plate reader. Cell growth is determined by correcting for the cell count on day zero. Inhibition rate is calculated with the formula of % inhibition=100*(DMSO control-compounds)/(DMSO control-Blank). Cell growth inhibition IC50 is calculated with the equation of Y-Bottom+ (Top-Bottom)/(1+10^((LogIC50−X) *Hill Slope)).

`O=C(COC1CCNc2c1n[nH]c(=O)c2C(F)(F)F)N1CCN(c2ncc(C(F)(F)F)cn2)CC1` (racemic) [Compound 1] was tested, and the pIC50 [1] was greater than 7.00 and the pIC50 ([2]; Homo sapiens, NCI-H1373, 144 h) was 6.00 to 7.00.
Work on `O=C(CO[C@@H]1CCNc2c1n[nH]c(=O)c2C(F)(F)F)N1CCN(c2ncc(C(F)(F)F)cn2)CC1` (single isomer, unassigned) [Compound 2] yielded a pIC50 [1] greater than 7.00 and a pIC50 ([2]; Homo sapiens, NCI-H1373, 144 h) greater than 7.00.
With `O=C(COC1CCOc2c1n[nH]c(=O)c2Br)N1CCN(c2ncc(C(F)(F)F)cn2)CC1` (single isomer, unassigned) [Compound 8] the pIC50 [1] was greater than 7.00 and the pIC50 ([2]; Homo sapiens, NCI-H1373, 144 h) was 6.00 to 7.00.
For `CN1C[C@@H](OCC(=O)N2CCN(c3ncc(C(F)(F)F)cn3)CC2)c2n[nH]c(=O)c3cc(F)cc1c23` (single isomer, unassigned) [Compound 14], the pIC50 [1] was greater than 7.00 and the pIC50 ([2]; Homo sapiens, NCI-H1373, 144 h) was greater than 7.00.
Compound `O=C(CC1CN(c2cc(C(F)(F)F)c(=O)[nH]n2)CCO1)N1CCN(c2ncc(C(F)(F)F)cn2)CC1` (single isomer, unassigned) [Compound 32] has a pIC50 [1] greater than 7.00 and a pIC50 ([2]; Homo sapiens, NCI-H1373, 144 h) of 6.00 to 7.00.
Compound `Cc1c(N2CCOC(CC(=O)N3CCN(c4ncc(C(F)(F)F)cn4)CC3)C2)n[nH]c(=O)c1C(F)(F)F` (single isomer, unassigned) [Compound 39] has a pIC50 [1] greater than 7.00 and a pIC50 ([2]; Homo sapiens, NCI-H1373, 144 h) of 6.00 to 7.00.
`Cc1c(N2C[C@H](CC(=O)N3CCN(c4ncc(C(F)(F)F)cn4)CC3)O[C@@H](C)C2)n[nH]c(=O)c1C(F)(F)F` (single isomer, unassigned) [Compound 42] showed a pIC50 [1] greater than 7.00 and a pIC50 ([2]; Homo sapiens, NCI-H1373, 144 h) of less than 6.00.
Work on `Cc1c(N2C[C@@H](CC(=O)N3CCN(c4ncc(C(F)(F)F)cn4)CC3)O[C@H](C)C2)n[nH]c(=O)c1C(F)(F)F` (single isomer, unassigned) [Compound 43] yielded a pIC50 [1] greater than 7.00 and a pIC50 ([2]; Homo sapiens, NCI-H1373, 144 h) of 6.00 to 7.00.
`O=C(CC1CN(c2n[nH]c(=O)c3cc(F)ccc23)CCO1)N1CCN(c2ncc(C(F)(F)F)cn2)CC1` (single isomer, unassigned) [Compound 50] showed a pIC50 [1] greater than 7.00 and a pIC50 ([2]; Homo sapiens, NCI-H1373, 144 h) of 6.00 to 7.00.
With `O=C(COC1CCOc2c1n[nH]c(=O)c2Cl)N1CCN(c2ncc(C(F)(F)F)cn2)CC1` (single isomer, unassigned) [Compound 53] the pIC50 [1] was greater than 7.00 and the pIC50 ([2]; Homo sapiens, NCI-H1373, 144 h) was less than 6.00.
`O=C(COC1CCOc2c1n[nH]c(=O)c2Cl)N1CCN(c2ncc(C(F)(F)F)cn2)CC1` (single isomer, unassigned) [Compound 54] gave a pIC50 [1] greater than 7.00 and a pIC50 [2] of less than 6.00.
`O=C(CC1CN(c2n[nH]c(=O)c3ccccc23)CCO1)N1CCN(c2ncc(C(F)(F)F)cn2)CC1` (single isomer, unassigned) [Compound 92] showed a pIC50 [1] greater than 7.00 and a pIC50 ([2]; Homo sapiens, NCI-H1373, 144 h) of 6.00 to 7.00.
For `Cc1cccc2c(N3CCOC(CC(=O)N4CCN(c5ncc(C(F)(F)F)cn5)CC4)C3)n[nH]c(=O)c12` (single isomer, unassigned) [Compound 101], the pIC50 [1] was 6.00 to 7.00 and the pIC50 ([2]; Homo sapiens, NCI-H1373, 144 h) was less than 6.00.
`O=C(COC1CCOc2c1n[nH]c(=O)c2C(F)F)N1CCN(c2ncc(C(F)(F)F)cn2)CC1` (single isomer, unassigned) [Compound 114] gave a pIC50 [1] of less than 6.00 and a pIC50 ([2]; Homo sapiens, NCI-H1373, 144 h) of less than 6.00.
For `Cc1ccc2c(=O)[nH]nc(N3CCOC(CC(=O)N4CCN(c5ncc(C(F)(F)F)cn5)CC4)C3)c2c1` (single isomer, unassigned) [Compound 123], the pIC50 [1] was greater than 7.00 and the pIC50 ([2]; Homo sapiens, NCI-H1373, 144 h) was less than 6.00.
For `N#Cc1cnc(N2CCN(C(=O)CC3CN(c4cc(C(F)(F)F)c(=O)[nH]n4)c4cc(C(F)F)ccc4O3)CC2)nc1` (single isomer, unassigned) [Compound 138], the pIC50 [1] was greater than 7.00 and the pIC50 [2] was greater than 7.00.
`N#Cc1cnc(N2CCN(C(=O)CC3CN(c4cc(C(F)(F)F)c(=O)[nH]n4)c4cc(C(F)F)ccc4O3)CC2)nc1` (single isomer, unassigned) [Compound 140] gave a pIC50 [1] greater than 7.00 and a pIC50 [2] of less than 6.00.
In the case of `O=C(CC1CN(c2cc(C(F)(F)F)c(=O)[nH]n2)c2cc(C(F)F)ccc2O1)N1CCN(c2cnc(C(F)(F)F)cn2)CC1` (single isomer, unassigned) [Compound 145], the pIC50 [1] was greater than 7.00 and the pIC50 ([2]; Homo sapiens, NCI-H1373, 144 h) was greater than 7.00.
Compound `N#Cc1ccc2c(c1)N(c1cc(C(F)(F)F)c(=O)[nH]n1)CC(CC(=O)N1CCN(c3ncc(Cl)cn3)CC1)O2` (single isomer, unassigned) [Compound 216] has a pIC50 [1] greater than 7.00 and a pIC50 ([2]; Homo sapiens, NCI-H1373, 144 h) greater than 7.00.
`COCc1ccc2c(c1)N(c1cc(C(F)(F)F)c(=O)[nH]n1)CC(CC(=O)N1CCN(c3ncc(C(F)(F)F)cn3)CC1)O2` (single isomer, unassigned) [Compound 266] gave a pIC50 [1] greater than 7.00 and a pIC50 ([2]; Homo sapiens, NCI-H1373, 144 h) greater than 7.00.
`O=C(CC1CN(c2cc(C(F)(F)F)c(=O)[nH]n2)c2cc(F)ccc2O1)N1CCN(c2cnc(C(F)(F)F)cn2)CC1` (single isomer, unassigned) [Compound 291] showed a pIC50 [1] greater than 7.00 and a pIC50 ([2]; Homo sapiens, NCI-H1373, 144 h) of 6.00 to 7.00.
For `O=C(CC1CN(c2cc(C(F)(F)F)c(=O)[nH]n2)c2cc(F)ccc2O1)N1CCN(c2ccc(C3CC3)cn2)CC1` (single isomer, unassigned) [Compound 300], the pIC50 [1] was greater than 7.00 and the pIC50 ([2]; Homo sapiens, NCI-H1373, 144 h) was 6.00 to 7.00.
With `COCCNC(=O)c1ccc2c(c1)N(c1cc(C(F)(F)F)c(=O)[nH]n1)CC(CC(=O)N1CCN(c3ncc(C(F)(F)F)cn3)CC1)O2` (single isomer, unassigned) [Compound 309] the pIC50 [1] was greater than 7.00 and the pIC50 ([2]; Homo sapiens, NCI-H1373, 144 h) was 6.00 to 7.00.
`N#Cc1ccc2c(c1)N(c1cc(C(F)(F)F)c(=O)[nH]n1)CC(CC(=O)N1CCN(c3ncc(C4CC4)cn3)CC1)O2` (single isomer, unassigned) [Compound 316] gave a pIC50 [1] greater than 7.00 and a pIC50 ([2]; Homo sapiens, NCI-H1373, 144 h) greater than 7.00.
Compound `C[C@@H]1CN(C(=O)c2cncc(Oc3n[nH]c(=O)c(C(F)(F)F)c3N3CC4(C3)CC(F)(F)C4)c2)CCN1c1ncc(C(F)(F)F)cn1` [Compound 314] has a pIC50 [1] greater than 7.00.
Compound `COC1CN(c2c(Oc3ccnc(C(=O)N4CCN(c5ncc(C(F)(F)F)cn5)CC4)c3)n[nH]c(=O)c2C(F)(F)F)C1` [Compound 315] has a pIC50 [1] greater than 7.00.
For `C#Cc1cnc(N2CCN(C(=O)c3cc(Oc4n[nH]c(=O)c(C(F)(F)F)c4N4CC5(C4)CC(F)(F)C5)ccn3)CC2)nc1` [Compound 317], the pIC50 [1] was greater than 7.00.
`C[C@@H]1CN(C(=O)c2cc(Oc3n[nH]c(=O)c(C(F)(F)F)c3N3CC4(C3)CC(F)(F)C4)ccn2)CCN1c1ncc(C(F)(F)F)cn1` [Compound 318] showed a pIC50 [1] greater than 7.00.
Compound `C[C@@H]1CN(C(=O)c2cc(Oc3n[nH]c(=O)c(C(F)(F)F)c3N3CC4(C3)CC(F)(F)C4)ccn2)CCN1c1ncc(Cl)cn1` [Compound 319] has a pIC50 [1] greater than 7.00.
With `CCOC1CN(c2c(Oc3ccnc(C(=O)N4CCN(c5ncc(C(F)(F)F)cn5)CC4)c3)n[nH]c(=O)c2C(F)(F)F)C1` [Compound 320] the pIC50 [1] was greater than 7.00.
For `CCOC1CN(c2c(Oc3cncc(C(=O)N4CCN(c5ncc(C(F)(F)F)cn5)CC4)c3)n[nH]c(=O)c2C(F)(F)F)C1` [Compound 322], the pIC50 [1] was 6.00 to 7.00.
With `N#Cc1ccc(N2CCN(C(=O)c3cccc(Oc4n[nH]c(=O)c(C(F)(F)F)c4N4CC5(C4)CC(F)(F)C5)c3)CC2)nc1` [Compound 333] the pIC50 [1] was greater than 7.00.
In the case of `O=C(c1cncc(Oc2n[nH]c(=O)c(C(F)(F)F)c2N2CC3(C2)CC(F)(F)C3)c1)N1CCN(c2cnc(C(F)(F)F)cn2)CC1` [Compound 334], the pIC50 [1] was greater than 7.00.
With `O=C(c1cncc(Oc2n[nH]c(=O)c(C(F)(F)F)c2N2CC3(C2)CC(F)(F)C3)c1)N1CCN(c2ccc(C(F)(F)F)cn2)CC1` [Compound 335] the pIC50 [1] was greater than 7.00.
`C[C@@H]1CN(C(=O)c2cc(Oc3n[nH]c(=O)c(C(F)(F)F)c3N3CC(O)C3)ccn2)CCN1c1ncc(C(F)(F)F)cn1` [Compound 340] showed a pIC50 [1] greater than 7.00.
In the case of `C[C@@H]1CN(C(=O)c2cccc(Oc3n[nH]c(=O)c(C(F)(F)F)c3N3CC4(C3)CC(F)(F)C4)c2)CCN1c1ncc(C#N)cn1` [Compound 341], the pIC50 [1] was greater than 7.00.
`COC1CN(c2c(Oc3ccnc(C(=O)N4CCN(c5ncc(C(F)(F)F)cn5)[C@H](C)C4)c3)n[nH]c(=O)c2C(F)(F)F)C1` [Compound 342] gave a pIC50 [1] greater than 7.00.
In the case of `O=C(CC1CN(c2cc(C(F)(F)F)c(=O)[nH]n2)c2ccncc2O1)N1CCN(c2ncc(C(F)(F)F)cn2)CC1` (stereo not shown) [Compound 347], the pIC50 [1] was greater than 7.00.
`C[C@@H]1CN(C(=O)c2cccc(Oc3n[nH]c(=O)c(C(F)(F)F)c3N3CC(C#N)C3)c2)CCN1c1ncc(C(F)(F)F)cn1` [Compound 350] was tested, and the pIC50 [1] was greater than 7.00.
With `C[C@@H]1CN(C(=O)c2cc(Oc3n[nH]c(=O)c(C(F)(F)F)c3N3CC4(CCC4)C3)ccn2)CCN1c1ncc(C(F)(F)F)cn1` [Compound 352] the pIC50 [1] was greater than 7.00.

— patent US20240343727A1, “PYRIDAZINONE OR PYRIDINONE COMPOUNDS, PREPARATION METHODS AND USES THEREOF” (InventisBio Co., Ltd., priority 2021, published 2024)
